Paper PMC7170309, “Imidazopyridine-fused [1,3]diazepinones: modulations of positions 2 to 4 and their impacts on the anti-melanoma activity” (Journal of Enzyme Inhibition and Medicinal Chemistry, 2020)

Experiments:
[1] = test system: NIH-3T3 non-cancerous cells; assay: Neutral red uptake (NRU) toxicity assay, NIH-3T3; assay type: cell-based; conditions: non-cancerous mouse fibroblasts
[2] = test system: CCRF-CEM; assay: NCI-60 SRB assay, CCRF-CEM (Leukemia); assay type: cell-based, human; conditions: 10 µM, 48 h
Protocol: (§1) Primary anticancer assay was performed on a panel of 60 human cancer cell lines derived from nine neoplastic diseases, in accordance with the protocol of the Drug Evaluation Branch, National Cancer Institute, Bethesda, Maryland, USA[22]. Cells were incubated with tested compounds at 10 µM for 48 h. The growth percentage was evaluated spectrophotometrically using a protein binding dye, SRB. Results for each tested compound were reported as the percent of growth of treated cells when compared to untreated control cells.
(§2) To better compare the activity profile of these two series of compounds, compounds 5 and 8 were selected and then evaluated towards a panel of sixty cancer cell lines corresponding to nine different cancer types, i.e. leukaemia, melanoma, as well as lung, colon, central nervous system, ovarian, renal, prostate and breast cancers (NCI evaluation). Indeed, it is now well established that the growth inhibitory patterns of anticancer drugs against the NCI-60 cell line panel correlated well with their modes of action. For example, compounds that bind to tubulin have similar growth inhibition patterns regardless of which site on tubulin they bind[30]. […] Compounds were tested using the sulforhodamine B (SRB) assay that provides a direct cell density index. The amount of dye incorporated by the cells increases with the increase of the total protein biomass. Cells were incubated for 48 h with compounds at 10 µM concentration, then cell growth was evaluated spectrophotometrically and presented as the percent of untreated control cells. Values of the most sensitive cell lines were compared to those obtained with JMV5038 (Figure 4, for all data see SI).

[3] = test system: EKVX; assay: NCI-60 SRB assay, EKVX (NSCLC); assay type: cell-based, human; conditions: 10 µM, 48 h
Protocol: as §1, §2

[4] = test system: HOP-92; assay: NCI-60 SRB assay, HOP-92 (NSCLC); assay type: cell-based, human; conditions: 10 µM, 48 h;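 on Mean G% - G%: mean growth across the NCI-60 panel minus this line's growth with positive meaning more sensitive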
Protocol: as §1, §2

[5] = test system: NCI-H23; assay: NCI-60 SRB assay, NCI-H23 (NSCLC); assay type: cell-based, human; conditions: 10 µM, 48 h
Protocol: as §1, §2

[6] = test system: NCI-H460; assay: NCI-60 SRB assay, NCI-H460 (NSCLC); assay type: cell-based, human; conditions: 10 µM, 48 h
Protocol: as §1, §2

[7] = test system: HCT-116; assay: NCI-60 SRB assay, HCT-116 (Colon Cancer); assay type: cell-based, human; conditions: 10 µM, 48 h
Protocol: as §1, §2

[8] = test system: HT29; assay: NCI-60 SRB assay, HT29 (Colon Cancer); assay type: cell-based, human; conditions: 10 µM, 48 h;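 on Mean G% - G%: mean growth across the NCI-60 panel minus this line's growth with positive meaning more sensitive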
Protocol: as §1, §2

[9] = test system: SF-268; assay: NCI-60 SRB assay, SF-268 (CNS Cancer); assay type: cell-based, human; conditions: 10 µM, 48 h
Protocol: as §1, §2

[10] = test system: SNB-75; assay: NCI-60 SRB assay, SNB-75 (CNS Cancer); assay type: cell-based, human; conditions: 10 µM, 48 h
Protocol: as §1, §2

[11] = test system: MALME-3M; assay: NCI-60 SRB assay, MALME-3M (Melanoma); assay type: cell-based, human; conditions: 10 µM, 48 h
Protocol: as §1, §2

[12] = test system: SK-MEL-28; assay: NCI-60 SRB assay, SK-MEL-28 (Melanoma); assay type: cell-based, human; conditions: 10 µM, 48 h
Protocol: as §1, §2

[13] = test system: UACC-257; assay: NCI-60 SRB assay, UACC-257 (Melanoma); assay type: cell-based, human; conditions: 10 µM, 48 h
Protocol: as §1, §2

[14] = test system: UACC-62; assay: NCI-60 SRB assay, UACC-62 (Melanoma); assay type: cell-based, human; conditions: 10 µM, 48 h
Protocol: as §1, §2

[15] = test system: IGROV1; assay: NCI-60 SRB assay, IGROV1 (Ovarian Cancer); assay type: cell-based, human; conditions: 10 µM, 48 h
Protocol: as §1, §2

[16] = test system: 786-0; assay: NCI-60 SRB assay, 786-0 (Renal Cancer); assay type: cell-based, human; conditions: 10 µM, 48 h
Protocol: as §1, §2

[17] = test system: CAKI-1; assay: NCI-60 SRB assay, CAKI-1 (Renal Cancer); assay type: cell-based, human; conditions: 10 µM, 48 h
Protocol: as §1, §2

[18] = test system: RXF 393; assay: NCI-60 SRB assay, RXF 393 (Renal Cancer); assay type: cell-based, human; conditions: 10 µM, 48 h
Protocol: as §1, §2

[19] = test system: DU-145; assay: NCI-60 SRB assay, DU-145 (Prostate Cancer); assay type: cell-based, human; conditions: 10 µM, 48 h
Protocol: as §1, §2

[20] = test system: MDA-MB-231; assay: NCI-60 SRB assay, MDA-MB-231 (Breast Cancer); assay type: cell-based, human; conditions: 10 µM, 48 h;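 on Mean G% - G%: mean growth across the NCI-60 panel minus this line's growth with positive meaning more sensitive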
Protocol: as §1, §2

[21] = test system: MDA-MB-468; assay: NCI-60 SRB assay, MDA-MB-468 (Breast Cancer); assay type: cell-based, human; conditions: 10 µM, 48 h;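 on Mean G% - G%: mean growth across the NCI-60 panel minus this line's growth with positive meaning more sensitive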
Protocol: as §1, §2

SMILES: [N-]=[N+]=NCCCC[C@@H]1NC(c2ccc(Br)cc2)=Nc2nc3ccccn3c2C1=O [Compound 16, (4S)-4-(4-azidobutyl)-2-(4-bromophenyl)-3,4-dihydro-5H-pyrido[1’,2’:1,2]imidazo[4,5-d][1,3]diazepin-5-one]
- IC50 ([1]; 72 h): 9.9 ± 0.51 µM
- IC50 ([1]; Mus musculus, NIH3T3, 72 h): ~10 µM
- Mean G% - G% [2]: -6,17%
- G% ([2]; growth vs untreated control): 97,94%
- Mean G% - G% [3]: 12,19%
- G% ([3]; growth vs untreated control): 79,58%
- Mean G% - G% [4]: -11,05%
- G% ([4]; growth vs untreated control): 102,82%
- Mean G% - G% [5]: -7,34%
- G% ([5]; growth vs untreated control): 99,11%
- Mean G% - G% [6]: 0,98%
- G% ([6]; growth vs untreated control): 90,79%
- Mean G% - G% [7]: -1,04%
- G% ([7]; growth vs untreated control): 92,81%
- Mean G% - G% [8]: -14,13%
- G% ([8]; growth vs untreated control): 105,90%
- Mean G% - G% [9]: 1,04%
- G% ([9]; growth vs untreated control): 90,73%
- Mean G% - G% [10]: 4,12%
- G% ([10]; growth vs untreated control): 87,65%
- Mean G% - G% [11]: -22,73%
- G% ([11]; growth vs untreated control): 114,50%
- Mean G% - G% [12]: -18,13%
- G% ([12]; growth vs untreated control): 109,90%
- Mean G% - G% [13]: 5,48%
- G% ([13]; growth vs untreated control): 86,29%
- Mean G% - G% [14]: 11,94%
- G% ([14]; growth vs untreated control): 79,83%
- Mean G% - G% [15]: 70,16%
- G% ([15]; growth vs untreated control): 21,61%
- Mean G% - G% [16]: 0,98%
- G% ([16]; growth vs untreated control): 90,79%
- Mean G% - G% [17]: 7,26%
- G% ([17]; growth vs untreated control): 84,51%
- Mean G% - G% [18]: 10,83%
- G% ([18]; growth vs untreated control): 80,94%
- Mean G% - G% [19]: -10,18%
- G% ([19]; growth vs untreated control): 101,95%
- Mean G% - G% [20]: 16,73%
- G% ([20]; growth vs untreated control): 75,04%
- Mean G% - G% [21]: -6,46%
- G% ([21]; growth vs untreated control): 98,23%
- melting point: 127 to 128 °C
